# Results as given in ChEMBL document CHEMBL3286290, “In vitro screening of pentamidine analogs against bacterial and fungal strains” (Bioorg Med Chem Lett, 2014).
# Counter-ions that a name gives are not always drawn.
# Experiments:
# Format in all cases: functional
# [1] = system: Candida albicans; assay: Antifungal activity against Candida albicans ATCC 2091 assessed as growth inhibition by M7-A6 method
# [2] = system: Saccharomyces cerevisiae; assay: Antifungal activity against Saccharomyces cerevisiae ATCC 9763 assessed as growth inhibition by M7-A6 method
# [3] = system: Escherichia coli; assay: Antibacterial activity against Escherichia coli ATCC 10536 assessed as growth inhibition by M7-A6 method
# [4] = system: Bacillus subtilis; assay: Antibacterial activity against Bacillus subtilis ATCC 6633 assessed as growth inhibition by M7-A6 method
# [5] = system: Pseudomonas aeruginosa; assay: Antibacterial activity against Pseudomonas aeruginosa ATCC 9027 assessed as growth inhibition by M7-A6 method
# [6] = system: Candida parapsilosis; assay: Antifungal activity against Candida parapsilosis ATCC 22019 assessed as growth inhibition by M7-A6 method; conditions: Lodderomyces parapsilosis
# [7] = system: Candida albicans; assay: Antifungal activity against Candida albicans ATCC 10231 assessed as growth inhibition by M7-A6 method
# [8] = system: Aspergillus brasiliensis; assay: Antifungal activity against Aspergillus brasiliensis ATCC 16404 assessed as growth inhibition by M7-A6 method
# [9] = system: Escherichia coli; assay: Antibacterial activity against Escherichia coli ATCC 8739 assessed as growth inhibition by M7-A6 method
# [10] = system: Pseudomonas aeruginosa; assay: Antibacterial activity against Pseudomonas aeruginosa ATCC 15442 assessed as growth inhibition by M7-A6 method
# [11] = system: Bacillus cereus; assay: Antibacterial activity against Bacillus cereus ATCC 11778 assessed as growth inhibition by M7-A6 method
# [12] = system: Micrococcus luteus; assay: Antibacterial activity against Micrococcus luteus ATCC 9341 assessed as growth inhibition by M7-A6 method
# [13] = system: Staphylococcus aureus; assay: Antibacterial activity against Staphylococcus aureus ATCC 6538P assessed as growth inhibition by M7-A6 method
# [14] = system: Staphylococcus aureus; assay: Antibacterial activity against Staphylococcus aureus ATCC 6538 assessed as growth inhibition by M7-A6 method
# [15] = system: Micrococcus luteus; assay: Antibacterial activity against Micrococcus luteus ATCC 10240 assessed as growth inhibition by M7-A6 method
# [16] = Antifungal activity against Zygosaccharomyces rouxii ATCC 28253 assessed as growth inhibition by M7-A6 method
# [17] = system: Staphylococcus aureus; assay: Antibacterial activity against penicillin, erythromycin, amikacin, clindamycin, ciprofloxacin, methicillin-resistant Staphylococcus aureus 495/11 assessed as growth inhibition by M7-A6 method
# [18] = system: Staphylococcus aureus; assay: Antibacterial activity against penicillin, erythromycin, amikacin, clindamycin, ciprofloxacin, methicillin-resistant Staphylococcus aureus 573/12 assessed as growth inhibition by M7-A6 method
# [19] = system: Staphylococcus aureus; assay: Antibacterial activity against erythromycin, amikacin, clindamycin, ciprofloxacin, methicillin-resistant Staphylococcus aureus 15K/11 assessed as growth inhibition by M7-A6 method
# [20] = system: Staphylococcus aureus; assay: Antibacterial activity against penicillin, erythromycin, clindamycin, ciprofloxacin, methicillin-resistant Staphylococcus aureus 19K/11 assessed as growth inhibition by M7-A6 method
# [21] = system: Staphylococcus aureus; assay: Antibacterial activity against penicillin, erythromycin, amikacin, clindamycin, ciprofloxacin, methicillin-resistant Staphylococcus aureus 572/12 assessed as growth inhibition by M7-A6 method
Compound,MIC [1],MIC [2],MIC [3],MIC [4],MIC [5],MIC [6],MIC [7],MIC [8],MIC [9],MIC [10],MIC [11],MIC [12],MIC [13],MIC [14],MIC [15],MIC [16],further results
COc1cc(C(=N)N)ccc1OCCOCCOc1ccc(C(=N)N)cc1OC,10500 µM,10500 µM,10500 µM,2100 µM,> 21000 µM,5260 µM,10500 µM,21000 µM,2100 µM,> 21000 µM,1050 µM,2100 µM,520 µM,260 µM,520 µM,,
COc1cc(C(=N)N)ccc1OCCN(C)CCOc1ccc(C(=N)N)cc1OC,> 16300 µM,,16300 µM,810 µM,> 16300 µM,> 16300 µM,> 16300 µM,,8130 µM,> 16300 µM,100 µM,200 µM,8130 µM,8130 µM,410 µM,,
COc1cc(C(=N)N)cc(OC)c1OCCOCCOc1c(OC)cc(C(=N)N)cc1OC,> 17000 µM,,17000 µM,420 µM,> 17000 µM,> 17000 µM,> 17000 µM,,17000 µM,> 17000 µM,17000 µM,17 µM,210 µM,210 µM,51 µM,,
COc1cc(C(=N)N)cc(OC)c1OCCN(C)CCOc1c(OC)cc(C(=N)N)cc1OC,> 15200 µM,,15200 µM,1520 µM,> 15200 µM,> 15200 µM,> 15200 µM,,7610 µM,> 15200 µM,7610 µM,760 µM,7610 µM,7610 µM,1520 µM,,
N=C(N)c1ccc(OCCCCCOc2ccc(C(=N)N)cc2)cc1 [PENTAMIDINE HYDROCHLORIDE],110 µM,280 µM,280 µM,67 µM,1110 µM,4.4 µM,110 µM,22 µM,280 µM,1670 µM,1.1 µM,1.1 µM,67 µM,22 µM,4.4 µM,67 µM,MIC [17]: 1110 µM; MIC [18]: 140 µM; MIC [19]: 1110 µM; MIC [20]: 140 µM; MIC [21]: 560 µM

# More lines, in order of falling MIC [1], values ahead:
MIC [1],MIC [2],MIC [3],MIC [4],MIC [5],MIC [6],MIC [7],MIC [8],MIC [9],MIC [10],MIC [11],MIC [12],MIC [13],MIC [14],MIC [15],MIC [16],Compound,further results
1780 µM,4460 µM,220 µM,89 µM,1780 µM,890 µM,890 µM,8920 µM,220 µM,4460 µM,110 µM,3.5 µM,54 µM,54 µM,18 µM,110 µM,COc1cc(C(=N)N)cc(OC)c1OCCCCCOc1c(OC)cc(C(=N)N)cc1OC,
370 µM,180 µM,740 µM,42 µM,7380 µM,370 µM,92 µM,7380 µM,370 µM,7380 µM,42 µM,15 µM,42 µM,42 µM,42 µM,180 µM,COc1cc(C(=N)N)ccc1OCCN(CCOc1ccc(C(=N)N)cc1OC)S(=O)(=O)c1ccccc1,
210 µM,210 µM,210 µM,82 µM,1640 µM,100 µM,210 µM,8220 µM,210 µM,1640 µM,16 µM,100 µM,49 µM,49 µM,16 µM,10 µM,N=C(N)c1ccc(OCCN(CCOc2ccc(C(=N)N)cc2)S(=O)(=O)c2ccccc2)cc1,
